From ChEMBL document CHEMBL1909046, “DrugMatrix in vitro pharmacology data” come the findings set out here.

In general, IC50 refers to the concentration that gives 50% inhibition. For orientation: Ki means a dissociation constant, usually derived from enzyme kinetics or from competition with a known ligand.

Each structure is given as a SMILES string.

Assay [1] concerns the target Protein kinase C alpha type (Homo sapiens, UniProt P17252). Type of assay: cell-based. Particulars: sf9.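 Further: inhibition of PKCalpha kinase activity measured in an enzyme assay with histone as the phosphorylation substrate; in other assays of this panel Not Active means under 50% inhibition at 10 µM.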
For assay [2], the target named is T1, C-X-C chemokine receptor type 2 (Homo sapiens, UniProt P25025). Further: in other assays of this panel Not Active means under 50% inhibition at 10 µM.
T1 sequence (P25025 whole entry): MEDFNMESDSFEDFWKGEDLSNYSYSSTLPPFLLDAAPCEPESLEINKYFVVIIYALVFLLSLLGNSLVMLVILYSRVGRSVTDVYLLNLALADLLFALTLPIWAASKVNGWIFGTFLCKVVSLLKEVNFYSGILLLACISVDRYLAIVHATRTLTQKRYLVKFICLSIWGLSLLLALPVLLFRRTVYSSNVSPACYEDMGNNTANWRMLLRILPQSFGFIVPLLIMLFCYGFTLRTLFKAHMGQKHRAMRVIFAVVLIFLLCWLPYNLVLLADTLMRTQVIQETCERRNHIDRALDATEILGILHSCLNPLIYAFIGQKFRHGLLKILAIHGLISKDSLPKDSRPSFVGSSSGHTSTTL
It counts as cell membranes, CHO-K1, Membrane. Particulars: cho-k1.

In assay [3] the target is T2, Alpha-2C adrenergic receptor (Homo sapiens, UniProt P18825).
T2 sequence (P18825 whole entry): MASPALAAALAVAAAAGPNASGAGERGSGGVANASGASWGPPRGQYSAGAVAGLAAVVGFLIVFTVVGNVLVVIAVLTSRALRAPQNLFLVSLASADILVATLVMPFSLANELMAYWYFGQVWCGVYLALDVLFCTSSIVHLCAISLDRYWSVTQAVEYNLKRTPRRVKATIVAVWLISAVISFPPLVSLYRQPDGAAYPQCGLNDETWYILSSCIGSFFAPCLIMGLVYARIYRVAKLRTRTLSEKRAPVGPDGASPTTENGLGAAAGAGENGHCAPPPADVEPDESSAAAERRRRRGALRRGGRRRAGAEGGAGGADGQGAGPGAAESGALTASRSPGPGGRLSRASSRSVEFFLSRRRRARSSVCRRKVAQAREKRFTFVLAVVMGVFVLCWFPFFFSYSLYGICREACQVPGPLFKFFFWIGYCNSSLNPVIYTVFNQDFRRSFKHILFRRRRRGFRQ
Put plainly: DRUGMATRIX: Adrenergic Alpha-2C radioligand binding (ligand: [3H] MK-912). It counts as cell membranes, Sf9, Membrane.

A short description of assay [4]: DRUGMATRIX: Serotonin (5-Hydroxytryptamine) 5-HT3 radioligand binding (ligand: [3H] GR-65630). Type of assay: cell membranes, Membrane. The note with it: hek293; Not Active = under 50% inhibition at 10 µM.
For assay [5], the target named is T3, C-X-C chemokine receptor type 1 (Homo sapiens, UniProt P25024). Further: in other assays of this panel Not Active means under 50% inhibition at 10 µM.
T3 sequence (P25024 whole entry): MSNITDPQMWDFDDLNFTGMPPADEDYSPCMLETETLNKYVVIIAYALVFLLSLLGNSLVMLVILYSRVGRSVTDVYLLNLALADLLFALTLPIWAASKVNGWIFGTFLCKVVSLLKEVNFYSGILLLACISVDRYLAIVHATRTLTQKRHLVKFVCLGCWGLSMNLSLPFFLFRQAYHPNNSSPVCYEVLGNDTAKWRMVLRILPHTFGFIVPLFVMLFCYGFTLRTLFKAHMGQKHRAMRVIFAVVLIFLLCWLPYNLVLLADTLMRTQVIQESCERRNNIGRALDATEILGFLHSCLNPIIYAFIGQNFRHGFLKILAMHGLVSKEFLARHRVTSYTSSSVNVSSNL

The target of assay [6] is Melanocortin receptor 4 (Homo sapiens, UniProt P32245). It counts as cell membranes, Membrane. The note with it: hek293. Further: in other assays of this panel Not Active means under 50% inhibition at 10 µM.
Chain of Melanocortin receptor 4 (P32245 whole entry): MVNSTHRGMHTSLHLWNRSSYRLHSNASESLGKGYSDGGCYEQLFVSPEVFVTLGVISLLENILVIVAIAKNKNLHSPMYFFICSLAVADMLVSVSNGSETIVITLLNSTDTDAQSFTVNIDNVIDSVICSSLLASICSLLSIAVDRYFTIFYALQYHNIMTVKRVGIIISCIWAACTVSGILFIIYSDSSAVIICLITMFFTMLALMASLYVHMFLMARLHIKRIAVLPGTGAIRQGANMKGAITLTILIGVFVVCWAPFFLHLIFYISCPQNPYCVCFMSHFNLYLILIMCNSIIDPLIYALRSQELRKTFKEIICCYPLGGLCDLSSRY

Regarding `Cc1cnc(NC(=O)C2=C(O)c3ccccc3S(=O)(=O)N2C)s1` [MELOXICAM], the IC50 entry in assay [1], in assay [2], in assay [3] (sf9), in assay [4], in assay [5] and in assay [6] was “Not Active” each time. In addition, the Ki result in assay [4] is given as “Not Active”.
For the compound `Nc1nc(N)c2nc(-c3ccccc3)c(N)nc2n1`, the half-maximal inhibitory concentration (IC50) entry in assay [1], in assay [2], in assay [3] (sf9), in assay [4], in assay [5] and in assay [6] was “Not Active” in each case. Besides, the Ki result in assay [4] is listed as “Not Active”.
In the case of `CC(C)(C)NC[C@H](O)COc1cccc2c1CCCC2=O` [LEVOBUNOLOL], the IC50 result in assay [1], in assay [2], in assay [3] (sf9), in assay [4], in assay [5] and in assay [6] was “Not Active” throughout. The inhibitory constant (Ki) entry in assay [4] is “Not Active”.
For the compound `Cc1[nH]c(=O)c(C#N)cc1-c1ccncc1` [MILRINONE], the concentration for half-maximal inhibition (IC50) entry in assay [1], in assay [2], in assay [3] (sf9), in assay [4], in assay [5] and in assay [6] was “Not Active” in each case. Also, the inhibition constant Ki entry in assay [4] is listed as “Not Active”.
Take `Cc1cn([C@H]2C=C[C@@H](CO)O2)c(=O)[nH]c1=O` [STAVUDINE]: the IC50 result in assay [1], in assay [2], in assay [3] (sf9), in assay [4], in assay [5] and in assay [6] was “Not Active” each time. Besides, the Ki result in assay [4] is listed as “Not Active”.
For the compound `CCOc1cc(N)c(Cl)cc1C(=O)NCC1CN(Cc2ccc(F)cc2)CCO1` (stereo unspecified) [MOSAPRIDE], the IC50 entry in assay [1], in assay [2], in assay [3] (sf9), in assay [4], in assay [5] and in assay [6] was “Not Active” in each case. Also, in assay [4], the inhibition constant Ki entry is reported as “Not Active”.
In the case of `C#C[C@]1(O)CC[C@H]2[C@@H]3[C@H](C)CC4=C(CCC(=O)C4)[C@H]3CC[C@@]21C` [TIBOLONE], the 50% inhibitory concentration (IC50) result in assay [1], in assay [2], in assay [3] (sf9), in assay [4], in assay [5] and in assay [6] was “Not Active” each time. In assay [4], the Ki entry is listed as “Not Active”.
On to `CC[C@H](C)[C@@H](CO[C@@H](Cc1ccccc1)C(=O)N[C@@H](CCS(C)(=O)=O)C(=O)OC(C)C)NC[C@@H](N)CS`, for which the IC50 result in assay [1] is “Not Active”; in assay [2], “Not Active”; in assay [3] (read-out: IC50), 3140 nM; in assay [4], “Not Active”; in assay [5], “Not Active”; in assay [6], “Not Active”. Further, the inhibitory constant (Ki) in assay [3] (read-out: Ki) is 456 nM; in assay [4], “Not Active”.
With `OC[C@@H](O)[C@@H](O)[C@H](O)[C@H](O)CO` [MANNITOL], the IC50 result in assay [1], in assay [2], in assay [3] (sf9), in assay [4], in assay [5] and in assay [6] was “Not Active” throughout. Further, the inhibition constant Ki result in assay [4] is recorded as “Not Active”.
In the case of `Cc1cc2c(s1)Nc1ccccc1N=C2N1CCN(C)CC1` [OLANZAPINE], the IC50 result in assay [1], in assay [2], in assay [5] and in assay [6] was “Not Active” in each case.
In the case of `CNCCCC12CCC(c3ccccc31)c1ccccc12` [MAPROTILINE], the concentration for half-maximal inhibition (IC50) entry in assay [1], in assay [2], in assay [5] and in assay [6] was “Not Active” each time.
For the compound `CN(C)CCC=C1c2ccccc2COc2ccccc21` [DOXEPIN], the IC50 result in assay [1], in assay [2], in assay [5] and in assay [6] was “Not Active” throughout.
